# Source: article doi:10.1101/2022.05.03.490502v1 (biorxiv, 2022)
# Experiments:
# LAT1 (hLAT1; LAT1/4F2hc) [1] = target: T1, LAT1 (hLAT1; LAT1/4F2hc) (Homo sapiens, UniProt Q01650); assay: cis-inhibition of [3H]-gabapentin uptake, TREx HEK-hLAT1 cells; type: cell-based
# LAT1 (hLAT1; LAT1/4F2hc) [2] = target: T1, LAT1 (hLAT1; LAT1/4F2hc); assay: cell-based; design: species or system TREx HEK-hLAT1
# T1 sequence (Q01650 whole entry): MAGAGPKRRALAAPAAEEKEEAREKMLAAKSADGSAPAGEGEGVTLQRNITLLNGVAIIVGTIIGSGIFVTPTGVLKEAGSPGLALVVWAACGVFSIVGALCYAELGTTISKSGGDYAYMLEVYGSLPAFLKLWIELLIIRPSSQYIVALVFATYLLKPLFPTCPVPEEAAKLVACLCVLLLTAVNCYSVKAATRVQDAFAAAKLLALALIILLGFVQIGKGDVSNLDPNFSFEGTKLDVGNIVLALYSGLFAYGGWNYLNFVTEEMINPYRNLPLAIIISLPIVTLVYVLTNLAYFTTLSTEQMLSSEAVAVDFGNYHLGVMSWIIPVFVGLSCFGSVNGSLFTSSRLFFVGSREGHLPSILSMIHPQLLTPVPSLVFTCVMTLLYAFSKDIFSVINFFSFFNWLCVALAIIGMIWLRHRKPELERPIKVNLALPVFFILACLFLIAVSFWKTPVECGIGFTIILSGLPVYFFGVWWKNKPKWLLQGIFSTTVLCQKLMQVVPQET
# T1 sequence (P08195 103-630 partner): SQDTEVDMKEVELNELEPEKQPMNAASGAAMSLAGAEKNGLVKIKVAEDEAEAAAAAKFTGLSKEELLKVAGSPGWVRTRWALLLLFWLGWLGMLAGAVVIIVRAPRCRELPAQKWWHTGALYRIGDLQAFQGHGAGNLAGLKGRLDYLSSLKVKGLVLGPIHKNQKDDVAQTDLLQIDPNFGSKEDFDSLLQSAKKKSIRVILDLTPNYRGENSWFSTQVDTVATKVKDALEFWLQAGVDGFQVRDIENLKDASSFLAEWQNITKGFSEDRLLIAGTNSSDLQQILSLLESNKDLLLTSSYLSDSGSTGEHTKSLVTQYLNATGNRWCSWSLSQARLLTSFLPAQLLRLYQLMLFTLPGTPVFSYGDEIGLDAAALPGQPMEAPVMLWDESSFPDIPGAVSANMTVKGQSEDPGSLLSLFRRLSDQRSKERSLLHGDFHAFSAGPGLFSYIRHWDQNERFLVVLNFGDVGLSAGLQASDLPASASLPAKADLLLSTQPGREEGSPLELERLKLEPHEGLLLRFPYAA
SMILES,IC50 (LAT1 (hLAT1; LAT1/4F2hc) [1]),IC50 (LAT1 (hLAT1; LAT1/4F2hc) [2])
NC(Cc1ccc(O)c(OCc2ccccc2)c1)C(=O)O (centres unmarked) [EN2],63.3 µM,–
N[C@@H](Cc1ccc(/N=N/c2ccccc2)cc1)C(=O)O [EN14],–,16 µM
N[C@@H](CNC(=O)OCC1c2ccccc2-c2ccccc21)C(=O)O [KH1],44.4 µM,–
N[C@@H](Cc1c[nH]c2ccc(OCc3ccccc3)cc12)C(=O)O [KH13],11.8 µM,–
N[C@@H](Cc1ccccc1)C(=O)O [L-Phe],–,91.8 µM
